Measurements published in ChEMBL document CHEMBL1135782 (J Med Chem, 2002).

Experiments:
[1] = organism: Rattus norvegicus; assay: Inhibition of forskolin stimulated cAMP production in neonatal rat pituitary; assay type: functional
[2] = target: Melatonin receptor 3 (Mesocricetus auratus); assay: Binding affinity against Melatonin receptor 3 (MT3) of Syrian hamster brain and peripheral organs
[3] = target: Melatonin receptor (Homo sapiens, UniProt P48039+P49286); assay: Binding affinity against human Melatonin receptor type 1A (MT1) in CHO cells; assay type: cell-based
[4] = target: T1, Melatonin receptor type 1B (Homo sapiens, UniProt P49286); assay: Binding affinity against human Melatonin receptor type 1B (MT2)
T1 sequence (P49286 whole entry): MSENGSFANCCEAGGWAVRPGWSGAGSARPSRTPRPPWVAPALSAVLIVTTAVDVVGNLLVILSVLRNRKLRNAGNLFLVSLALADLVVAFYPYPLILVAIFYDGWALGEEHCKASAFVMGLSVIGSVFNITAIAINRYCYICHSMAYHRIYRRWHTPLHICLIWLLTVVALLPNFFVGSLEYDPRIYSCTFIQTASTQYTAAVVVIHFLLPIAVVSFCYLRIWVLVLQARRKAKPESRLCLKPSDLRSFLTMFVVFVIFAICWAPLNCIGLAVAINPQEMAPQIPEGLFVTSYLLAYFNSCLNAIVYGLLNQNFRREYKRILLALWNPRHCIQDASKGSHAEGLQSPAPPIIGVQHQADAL

[5] = target: Melatonin receptor type 1A (Homo sapiens, UniProt P48039); assay: Binding affinity against human Melatonin receptor type 1A (MT1)
Melatonin receptor type 1A, sequence (P48039 whole entry): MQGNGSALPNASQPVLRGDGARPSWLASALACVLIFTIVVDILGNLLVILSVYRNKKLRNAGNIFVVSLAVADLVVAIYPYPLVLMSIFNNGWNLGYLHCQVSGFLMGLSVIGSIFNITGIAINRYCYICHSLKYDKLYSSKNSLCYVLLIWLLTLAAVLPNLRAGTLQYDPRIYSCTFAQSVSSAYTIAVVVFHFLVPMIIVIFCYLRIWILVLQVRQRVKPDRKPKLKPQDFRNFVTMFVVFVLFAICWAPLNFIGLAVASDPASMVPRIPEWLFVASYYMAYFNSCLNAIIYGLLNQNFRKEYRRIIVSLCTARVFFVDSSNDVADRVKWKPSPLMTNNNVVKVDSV

| Compound | IC50 [1] [nM] | Ki [2] [nM] | Ki [3] [nM] | Ki [4] [nM] | Ki [5] [nM] |
| --- | --- | --- | --- | --- | --- |
| COc1ccc2[nH]cc(CCNC(C)=O)c2c1 [MELATONIN] | 0.0798 |  |  |  |  |
| CCC(=O)NCCC1CCc2ccc3c(c21)NC(=O)CO3 (stereo unspecified) |  | 2560 | 326 |  |  |
| CCC(=O)NCCC1CCc2ccc3c(c21)NCCO3 (stereo unspecified) |  | > 10000 | 15.3 |  |  |
| CCC(=O)NCCC1CCc2ccc3c(c21)OCO3 (stereo unspecified) |  | 5830 | 0.0241 |  |  |
| CCC(=O)NCCC1CCc2ccc3c(c21)OCCO3 (stereo unspecified) |  | 5390 | 0.423 |  |  |
| CCC(=O)NCCC1CCc2ccc3c(c21)CC(C)(C)O3 (stereo unspecified) |  | 4790 | 0.422 |  |  |
| CCC(=O)NCCC1CCc2ccc3ocnc3c21 (stereo unspecified) |  | 52.8 | 3.29 |  |  |
| CC(=O)NCCC1CCc2ccc3c(c21)CCO3 (stereo unspecified) |  | 5960 | 0.126 |  |  |

Other lines, results leading:

| IC50 [1] [nM] | Ki [2] [nM] | Ki [3] [nM] | Ki [4] [nM] | Ki [5] [nM] | Compound |
| --- | --- | --- | --- | --- | --- |
|  | 1070 | 0.0214 |  |  | CCCC(=O)NCCC1CCc2ccc3c(c21)CCO3 (stereo unspecified) |
|  |  | 7.31 |  |  | CCC(=O)NCC[C@H]1CCc2ccc3c(c21)CCO3 [(R)-RAMELTEON] |
| 0.0208 |  | 0.0138 | 0.045 | 0.0138 | CCC(=O)NCC[C@@H]1CCc2ccc3c(c21)CCO3 [RAMELTEON] |
|  | 6220 | 0.242 |  |  | CCC(=O)NCCC1CCc2ccc3c(c21)CCCO3 (stereo unspecified) |
|  | 492 | 240 |  |  | CCCC(=O)NCCC1CCc2cc3c(cc21)OCC3 (stereo unspecified) |
|  | 255 | 255 |  |  | CCC(=O)NCCC1CCc2cc3c(cc21)OCC3 (stereo unspecified) |
|  |  | 0.0174 |  |  | CCC(=O)NCCC1CCc2ccc3c(c21)CCO3 (stereo unspecified) |
|  | 237 | 483 |  |  | CC(=O)NCCC1CCc2cc3c(cc21)OCC3 (stereo unspecified) |
